From BindingDB's records for doi:10.1038/nchembio.2304 (Novartis Institutes for BioMedical Research, 2017)
pIC50: −log10 of the molar value.

Tests used:
Assay in all cases: HMT Assay
[1] = target: Sodium-dependent noradrenaline transporter (Homo sapiens, UniProt P23975)
[2] = target: Protein arginine N-methyltransferase 3 [N508S] (Homo sapiens, UniProt O60678, N508S)
[3] = target: N-lysine methyltransferase SETD6 (Human, UniProt Q8TBK2)
[4] = target: Acetylcholine receptor subunit alpha (Homo sapiens, UniProt P02708)
[5] = target: 5-hydroxytryptamine receptor 1A (Homo sapiens, UniProt P08908)
[6] = target: Histone-lysine N-methyltransferase NSD3 (Homo sapiens, UniProt Q9BZ95)
[7] = target: Tyrosine-protein kinase Lyn (Homo sapiens, UniProt P07948)
[8] = target: T1, Rho-associated protein kinase 2 [6-553] (Human, UniProt O75116)
T1 construct: 6-553

[9] = target: T2, Interleukin-1 receptor-associated kinase 1 [184-712] (Human, UniProt P51617)
T2 construct: 184-712

[10] = target: Serine/threonine-protein kinase 17B (Homo sapiens, UniProt O94768)
[11] = target: Mitogen-activated protein kinase kinase kinase kinase 4 (Homo sapiens, UniProt O95819)
[12] = target: T3, Tyrosine-protein kinase ABL1 [64-515] (Homo sapiens, UniProt P00519)
T3 construct: 64-515

[13] = target: Protein kinase C alpha type (Homo sapiens, UniProt P17252)
[14] = target: T4, Protein arginine N-methyltransferase 1 [11-371] (Homo sapiens, UniProt Q99873)
T4 construct: 11-371

[15] = target: Histone-lysine N-methyltransferase SUV39H2 (Human, UniProt Q9H5I1)
[16] = target: Alpha-1A adrenergic receptor (Homo sapiens, UniProt P35348)
[17] = target: Serine/threonine-protein kinase 4 (Human, UniProt Q13043)
Estrogen receptor = Estrogen receptor (Homo sapiens, UniProt P03372)
[18] = target: DNA (cytosine-5)-methyltransferase 1 (Homo sapiens, UniProt P26358)
[19] = target: T5, Fibroblast growth factor receptor 4 [388-802] (Human, UniProt P22455)
T5 construct: 388-802

[20] = target: Muscarinic acetylcholine receptor M2 (Homo sapiens, UniProt P08172)
[21] = target: Gamma-aminobutyric acid receptor subunit alpha-1 (Homo sapiens, UniProt P14867)
[22] = target: T6, Fibroblast growth factor receptor 2 [406-821] (Human, UniProt P21802)
T6 construct: 406-821

[23] = target: Tyrosine-protein kinase BTK (Homo sapiens, UniProt Q06187)
[24] = target: T7, Mitogen-activated protein kinase kinase kinase 8 [30-404] (Human, UniProt P41279)
T7 construct: 30-404

[25] = target: T8, Receptor-type tyrosine-protein kinase FLT3 [563-993,D835Y] (Human, UniProt P36888, D835Y)
T8 construct: 563-993

[26] = target: Methylosome protein 50/Protein arginine N-methyltransferase 5 (Homo sapiens, UniProt O14744)
D(1A) dopamine receptor = D(1A) dopamine receptor (Homo sapiens, UniProt P21728)
[27] = target: Protein kinase C theta type (Homo sapiens, UniProt Q04759)
[28] = target: Histone-lysine N-methyltransferase EHMT2 (Homo sapiens, UniProt Q96KQ7)
Protocol: (§1) All HMT reactions were performed as described previously [Nasveschuk et al., ACS Med. Chem. Lett., 5:378-383].

[29] = target: Histone-lysine N-methyltransferase NSD2 (Homo sapiens, UniProt O96028)
Protocol: as §1

[30] = target: N-lysine methyltransferase SMYD2 (Homo sapiens, UniProt Q9NRG4)
Protocol: as §1

[31] = target: Histone-lysine N-methyltransferase SETD2 (Homo sapiens, UniProt Q9BYW2)
Protocol: as §1

[32] = target: Histone-arginine methyltransferase CARM1 (Homo sapiens, UniProt Q86X55)
Protocol: as §1

[33] = target: Histone-lysine N-methyltransferase SETDB1 (Homo sapiens, UniProt Q15047)
Protocol: as §1

[34] = target: Histone-lysine N-methyltransferase SMYD3 (Homo sapiens, UniProt Q9H7B4)
Protocol: as §1

[35] = target: Histone-lysine N-methyltransferase SETD7 (Homo sapiens, UniProt Q8WTS6)
Protocol: as §1

[36] = target: Histone-lysine N-methyltransferase, H3 lysine-79 specific (Homo sapiens, UniProt Q8TEK3)
Protocol: as §1

Sequence of Histone-lysine N-methyltransferase SETD7 (Q8WTS6 whole entry): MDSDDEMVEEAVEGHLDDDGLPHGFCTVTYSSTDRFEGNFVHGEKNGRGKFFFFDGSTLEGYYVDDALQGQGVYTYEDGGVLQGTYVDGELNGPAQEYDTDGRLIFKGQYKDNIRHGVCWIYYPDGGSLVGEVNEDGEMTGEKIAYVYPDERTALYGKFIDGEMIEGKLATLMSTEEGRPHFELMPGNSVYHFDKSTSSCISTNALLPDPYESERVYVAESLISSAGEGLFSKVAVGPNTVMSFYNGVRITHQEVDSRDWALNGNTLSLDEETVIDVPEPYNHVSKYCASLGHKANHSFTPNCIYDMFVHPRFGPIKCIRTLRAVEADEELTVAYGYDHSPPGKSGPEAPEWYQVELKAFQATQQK
Sequence of Acetylcholine receptor subunit alpha (P02708 as listed by the source): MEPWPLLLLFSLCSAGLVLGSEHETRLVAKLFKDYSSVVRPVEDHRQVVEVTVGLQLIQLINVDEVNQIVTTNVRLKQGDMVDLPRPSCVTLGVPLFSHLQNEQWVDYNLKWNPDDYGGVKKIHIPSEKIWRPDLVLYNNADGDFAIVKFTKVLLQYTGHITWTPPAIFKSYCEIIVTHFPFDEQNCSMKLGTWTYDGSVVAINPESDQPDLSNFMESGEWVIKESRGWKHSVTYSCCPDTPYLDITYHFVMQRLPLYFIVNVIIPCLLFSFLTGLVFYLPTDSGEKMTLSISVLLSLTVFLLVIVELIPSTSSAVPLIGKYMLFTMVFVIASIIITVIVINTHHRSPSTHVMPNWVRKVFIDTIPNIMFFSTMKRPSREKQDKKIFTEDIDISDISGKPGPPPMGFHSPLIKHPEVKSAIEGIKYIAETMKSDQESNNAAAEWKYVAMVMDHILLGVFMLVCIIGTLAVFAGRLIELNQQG
T4 sequence (Q99873 11-371): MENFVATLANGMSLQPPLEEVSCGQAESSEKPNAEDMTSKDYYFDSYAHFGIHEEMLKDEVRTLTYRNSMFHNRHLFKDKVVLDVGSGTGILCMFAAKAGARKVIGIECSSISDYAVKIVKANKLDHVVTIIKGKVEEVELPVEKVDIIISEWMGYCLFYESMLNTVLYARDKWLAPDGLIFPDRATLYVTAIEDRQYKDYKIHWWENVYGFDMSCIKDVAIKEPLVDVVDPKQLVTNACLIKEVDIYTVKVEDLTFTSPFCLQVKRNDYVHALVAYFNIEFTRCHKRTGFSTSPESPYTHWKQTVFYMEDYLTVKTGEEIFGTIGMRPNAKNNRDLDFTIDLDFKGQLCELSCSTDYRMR
Sequence of Tyrosine-protein kinase Lyn (P07948 whole entry): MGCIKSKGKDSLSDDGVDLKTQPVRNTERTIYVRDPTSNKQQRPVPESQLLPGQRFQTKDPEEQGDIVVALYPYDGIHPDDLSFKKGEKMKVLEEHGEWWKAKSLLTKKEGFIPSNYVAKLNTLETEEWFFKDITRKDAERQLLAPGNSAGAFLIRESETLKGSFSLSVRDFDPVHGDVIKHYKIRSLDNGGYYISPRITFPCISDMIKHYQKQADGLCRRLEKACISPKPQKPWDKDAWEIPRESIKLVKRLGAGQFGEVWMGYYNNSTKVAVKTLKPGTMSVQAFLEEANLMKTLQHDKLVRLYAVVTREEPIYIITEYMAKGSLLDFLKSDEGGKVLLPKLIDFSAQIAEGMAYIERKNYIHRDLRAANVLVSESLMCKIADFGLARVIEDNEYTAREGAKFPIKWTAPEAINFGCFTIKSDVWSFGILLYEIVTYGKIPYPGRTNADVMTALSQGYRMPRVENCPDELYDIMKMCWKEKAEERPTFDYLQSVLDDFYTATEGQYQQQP
Sequence of Histone-lysine N-methyltransferase NSD3 (Q9BZ95 whole entry): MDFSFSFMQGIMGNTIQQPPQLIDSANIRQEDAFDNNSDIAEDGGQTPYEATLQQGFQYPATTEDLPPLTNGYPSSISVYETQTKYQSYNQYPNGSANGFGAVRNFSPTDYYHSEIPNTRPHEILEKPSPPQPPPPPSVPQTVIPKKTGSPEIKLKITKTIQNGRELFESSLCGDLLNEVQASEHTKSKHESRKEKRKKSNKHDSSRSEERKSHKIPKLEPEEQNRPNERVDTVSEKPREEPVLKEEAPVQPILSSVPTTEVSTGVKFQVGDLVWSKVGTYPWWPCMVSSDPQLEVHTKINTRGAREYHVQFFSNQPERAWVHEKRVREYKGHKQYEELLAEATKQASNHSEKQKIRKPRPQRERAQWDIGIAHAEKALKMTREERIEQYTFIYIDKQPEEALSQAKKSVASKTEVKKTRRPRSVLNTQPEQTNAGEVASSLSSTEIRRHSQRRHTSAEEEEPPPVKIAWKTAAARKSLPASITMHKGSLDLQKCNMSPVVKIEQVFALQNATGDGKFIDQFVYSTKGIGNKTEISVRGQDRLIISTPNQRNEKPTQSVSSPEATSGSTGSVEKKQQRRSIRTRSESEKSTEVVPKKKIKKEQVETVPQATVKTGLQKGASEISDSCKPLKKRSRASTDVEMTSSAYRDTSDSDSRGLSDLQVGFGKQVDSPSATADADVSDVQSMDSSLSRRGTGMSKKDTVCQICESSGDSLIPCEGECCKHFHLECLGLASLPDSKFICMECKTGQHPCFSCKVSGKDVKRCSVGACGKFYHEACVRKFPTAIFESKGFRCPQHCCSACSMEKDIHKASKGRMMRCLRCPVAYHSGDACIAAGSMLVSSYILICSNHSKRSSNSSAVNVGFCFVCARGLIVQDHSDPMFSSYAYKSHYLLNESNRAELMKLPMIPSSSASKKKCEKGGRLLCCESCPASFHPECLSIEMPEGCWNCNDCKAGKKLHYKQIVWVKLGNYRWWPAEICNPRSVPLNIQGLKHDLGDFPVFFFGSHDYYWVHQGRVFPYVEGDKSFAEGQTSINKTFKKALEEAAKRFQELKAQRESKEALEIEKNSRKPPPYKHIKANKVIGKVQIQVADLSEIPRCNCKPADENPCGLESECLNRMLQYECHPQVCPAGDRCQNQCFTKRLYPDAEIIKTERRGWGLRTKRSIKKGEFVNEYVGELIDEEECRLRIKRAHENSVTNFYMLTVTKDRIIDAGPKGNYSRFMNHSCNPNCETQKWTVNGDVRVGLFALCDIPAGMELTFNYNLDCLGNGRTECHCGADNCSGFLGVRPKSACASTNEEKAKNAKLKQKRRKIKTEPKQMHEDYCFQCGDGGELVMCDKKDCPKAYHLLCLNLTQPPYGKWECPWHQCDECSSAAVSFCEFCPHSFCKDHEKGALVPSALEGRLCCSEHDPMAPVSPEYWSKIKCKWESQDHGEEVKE
Sequence of DNA (cytosine-5)-methyltransferase 1 (P26358 whole entry): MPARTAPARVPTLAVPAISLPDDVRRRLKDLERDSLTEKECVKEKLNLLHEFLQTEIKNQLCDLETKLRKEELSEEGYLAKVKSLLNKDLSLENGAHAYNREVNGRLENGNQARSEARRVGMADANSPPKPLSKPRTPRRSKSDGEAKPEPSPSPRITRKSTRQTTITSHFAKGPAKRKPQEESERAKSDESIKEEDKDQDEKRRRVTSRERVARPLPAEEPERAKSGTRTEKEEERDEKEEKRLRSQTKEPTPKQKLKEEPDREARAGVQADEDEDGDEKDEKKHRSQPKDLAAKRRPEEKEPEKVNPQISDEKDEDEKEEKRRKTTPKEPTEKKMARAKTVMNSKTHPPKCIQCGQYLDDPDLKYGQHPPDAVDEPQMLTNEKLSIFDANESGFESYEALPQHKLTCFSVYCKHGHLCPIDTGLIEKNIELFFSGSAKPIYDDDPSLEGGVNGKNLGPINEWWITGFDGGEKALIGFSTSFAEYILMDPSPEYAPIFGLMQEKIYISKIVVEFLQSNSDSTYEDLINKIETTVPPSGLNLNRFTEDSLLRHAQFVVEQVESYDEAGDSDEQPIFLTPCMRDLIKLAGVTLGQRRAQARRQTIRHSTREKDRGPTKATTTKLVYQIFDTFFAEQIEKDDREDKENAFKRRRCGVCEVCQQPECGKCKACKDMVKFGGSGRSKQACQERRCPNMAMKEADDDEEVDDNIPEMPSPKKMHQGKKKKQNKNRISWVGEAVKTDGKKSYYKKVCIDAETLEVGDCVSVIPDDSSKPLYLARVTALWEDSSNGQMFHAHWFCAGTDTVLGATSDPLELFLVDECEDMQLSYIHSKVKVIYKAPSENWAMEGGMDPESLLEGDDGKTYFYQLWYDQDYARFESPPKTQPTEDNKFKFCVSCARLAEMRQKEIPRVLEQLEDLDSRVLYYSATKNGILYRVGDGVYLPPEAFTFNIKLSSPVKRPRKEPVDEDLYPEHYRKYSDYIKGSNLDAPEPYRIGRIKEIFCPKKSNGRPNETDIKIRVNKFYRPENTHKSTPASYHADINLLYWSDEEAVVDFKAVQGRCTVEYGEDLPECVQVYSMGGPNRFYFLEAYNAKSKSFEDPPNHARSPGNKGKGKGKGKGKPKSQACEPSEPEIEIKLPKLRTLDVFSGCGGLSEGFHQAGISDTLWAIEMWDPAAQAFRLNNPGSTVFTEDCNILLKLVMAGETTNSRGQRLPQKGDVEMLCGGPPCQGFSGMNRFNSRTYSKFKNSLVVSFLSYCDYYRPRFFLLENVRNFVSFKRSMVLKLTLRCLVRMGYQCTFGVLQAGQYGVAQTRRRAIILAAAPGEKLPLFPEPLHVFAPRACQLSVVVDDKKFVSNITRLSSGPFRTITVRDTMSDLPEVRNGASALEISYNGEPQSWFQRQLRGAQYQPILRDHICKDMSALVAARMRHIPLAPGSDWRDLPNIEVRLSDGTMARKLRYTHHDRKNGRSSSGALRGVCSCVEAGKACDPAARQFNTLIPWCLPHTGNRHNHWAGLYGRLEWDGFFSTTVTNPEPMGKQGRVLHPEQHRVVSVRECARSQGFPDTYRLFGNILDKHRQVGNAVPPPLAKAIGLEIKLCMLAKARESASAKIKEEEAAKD

## CS(=O)(=O)c1ccc(-c2cnc(NCc3ccco3)n3cnnc23)cc1 [EED226]
[1]
  pIC50: < 4.52
[2]
  pIC50: < 4.00
[3]
  pIC50: < 4.00
[4]
  pIC50: < 4.52
[5]
  pIC50: < 4.52
[6]
  pIC50: < 4.00
[7]
  pIC50: < 5.00
[8]
  pIC50: < 5.00
[9]
  pIC50: < 5.00
[10]
  pIC50: < 5.00
[11]
  pIC50: < 5.00
[12]
  pIC50: < 5.00
[13]
  pIC50: < 5.00
[14]
  pIC50: < 4.00
[15]
  pIC50: < 4.00
[16]
  pIC50: < 4.52
[17]
  pIC50: < 5.00
Estrogen receptor
  pIC50: < 4.52
[18]
  pIC50: < 4.00
[19]
  pIC50: < 5.00
[20]
  pIC50: < 4.52
[21]
  pIC50: < 4.52
[22]
  pIC50: < 5.00
[23]
  pIC50: < 5.00
[24]
  pIC50: < 5.00
[25]
  pIC50: < 5.00
[26]
  pIC50: < 4.00
D(1A) dopamine receptor
  pIC50: < 4.52
[27]
  pIC50: < 5.00
[28]
  pIC50: < 4.00
[29]
  pIC50: < 4.00
[30]
  pIC50: < 4.00
[31]
  pIC50: < 4.00
[32]
  pIC50: < 4.00
[33]
  pIC50: < 4.00
[34]
  pIC50: < 4.00
[35]
  pIC50: < 4.00
[36]
  pIC50: < 4.00
